For seven compounds, GI50 and TGI results are on record in PubChem BioAssay (NCI).

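Each compound was tested at five concentrations against cells in 96-well plates for 48 hours. GI50: concentration for 50% inhibition of growth. TGI denotes the concentration required for complete inhibition of growth.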

Test systems include IGROV1 ovarian; NCI/ADR-RES ovarian; OVCAR-4 ovarian; OVCAR-3 ovarian; A549 NSCLC; PC-3 prostate; HT29 colon; UACC-257 melanoma; M14 melanoma; CCRF-CEM leukemia.
What all share (assay): NCI anticancer screen, dose series, 48 h

With `COc1cc2nc(NC3CCC3)nc(NC3CCN(C(C)C)CC3)c2cc1OC`, the GI50 was 7.08 µM in the experiment with IGROV1 ovarian; 15.6 µM in the experiment with NCI/ADR-RES ovarian; 3.25 µM with OVCAR-4 ovarian; 4.23 µM in the experiment with OVCAR-3 ovarian; 3.08 µM in the experiment with A549 NSCLC; 3.51 µM with PC-3 prostate. The GI50 in the experiment on HT29 colon is 1.75 µM; in the experiment with UACC-257 melanoma, 1.89 µM; in the experiment with M14 melanoma, 1.88 µM; in the experiment with CCRF-CEM leukemia, 2.21 µM. Moreover, the TGI amounted to 24 µM with IGROV1 ovarian; 65 µM in the experiment on NCI/ADR-RES ovarian; 20.9 µM in the experiment on OVCAR-4 ovarian; 16.6 µM with OVCAR-3 ovarian; 14.5 µM with A549 NSCLC; 20.7 µM in the experiment on PC-3 prostate. In addition, the TGI came out at 3.97 µM in the experiment with HT29 colon, 3.78 µM in the experiment on UACC-257 melanoma, 3.46 µM in the experiment on M14 melanoma and 5.11 µM in the experiment with CCRF-CEM leukemia.

Consider `CC/C(=C\c1ccc(N(C)C)cc1)c1ccncc1`, for which the GI50 with IGROV1 ovarian is 5.47 µM; with NCI/ADR-RES ovarian, 2.38 µM; in the experiment on OVCAR-4 ovarian it was 8.67 µM; in the experiment with OVCAR-3 ovarian, 4.13 µM; in the experiment with A549 NSCLC, 5.5 µM; in the experiment on PC-3 prostate, 10.3 µM. The GI50 was 4.43 µM in the experiment on HT29 colon, 11.6 µM with UACC-257 melanoma, 4.37 µM with M14 melanoma and 8.13 µM in the experiment with CCRF-CEM leukemia. Moreover, the TGI in the experiment on IGROV1 ovarian was over 100 µM; in the experiment on NCI/ADR-RES ovarian it was 6.09 µM; in the experiment on OVCAR-4 ovarian, over 100 µM; in the experiment on OVCAR-3 ovarian, 29.7 µM; with A549 NSCLC, over 100 µM; in the experiment with PC-3 prostate, over 100 µM. In addition, the TGI was over 100 µM with HT29 colon, over 100 µM with UACC-257 melanoma, 54.6 µM in the experiment with M14 melanoma and over 100 µM in the experiment on CCRF-CEM leukemia.

On to `COc1cnc2c(c1)C(=O)c1c-2n(CCCN2CCNCC2)c(=O)c2cc(F)ccc12`, for which the GI50 was 0.478 µM with IGROV1 ovarian; 0.865 µM in the experiment on NCI/ADR-RES ovarian; 0.892 µM in the experiment with OVCAR-4 ovarian; 0.335 µM in the experiment on OVCAR-3 ovarian; 0.0164 µM in the experiment with A549 NSCLC; 0.596 µM in the experiment on PC-3 prostate. For the same compound, the GI50 in the experiment on HT29 colon is 0.15 µM; in the experiment on UACC-257 melanoma, 1.29 µM; in the experiment with M14 melanoma, 0.366 µM; in the experiment with CCRF-CEM leukemia, 0.0421 µM. Moreover, the TGI with IGROV1 ovarian was 2.34 µM; with NCI/ADR-RES ovarian, 4.43 µM; in the experiment with OVCAR-4 ovarian, 2.49 µM; with OVCAR-3 ovarian, 1.63 µM; in the experiment on A549 NSCLC, 0.219 µM; in the experiment on PC-3 prostate it was 2.51 µM. Further, the TGI in the experiment with HT29 colon came to 0.68 µM; with UACC-257 melanoma, 2.69 µM; with M14 melanoma, 1.88 µM; in the experiment with CCRF-CEM leukemia, 1.06 µM.

Turning to `N/C(=N\O)c1cn(C2OC(CO)C(O)C2O)c2ncnc(N)c12` (centres undefined), the GI50 in the experiment with IGROV1 ovarian is 0.263 µM; in the experiment with NCI/ADR-RES ovarian it was 0.262 µM; with OVCAR-4 ovarian, 0.177 µM; in the experiment with OVCAR-3 ovarian, 0.408 µM; in the experiment on A549 NSCLC, 0.126 µM; in the experiment with PC-3 prostate, 0.343 µM. The GI50 was 0.226 µM in the experiment with HT29 colon, 0.177 µM in the experiment with UACC-257 melanoma, 0.108 µM with M14 melanoma and 0.303 µM in the experiment on CCRF-CEM leukemia. Besides, the TGI is 20.7 µM in the experiment with IGROV1 ovarian; 4.05 µM with OVCAR-4 ovarian; 9.76 µM in the experiment on OVCAR-3 ovarian; 20.1 µM with A549 NSCLC; 5.79 µM in the experiment with PC-3 prostate; 18.6 µM in the experiment on HT29 colon. Further, the TGI in the experiment with UACC-257 melanoma is 0.705 µM; in the experiment with M14 melanoma, 0.776 µM; with CCRF-CEM leukemia, over 38.6 µM.

With `Nc1nc(-c2ccccn2)c(-c2ccc3ncccc3n2)s1`, the GI50 in the experiment with IGROV1 ovarian, in the experiment on NCI/ADR-RES ovarian, in the experiment with OVCAR-4 ovarian, in the experiment on OVCAR-3 ovarian, in the experiment on A549 NSCLC and in the experiment with PC-3 prostate was over 25 µM in each case. In addition, the GI50 with HT29 colon, in the experiment with UACC-257 melanoma, in the experiment on M14 melanoma and in the experiment on CCRF-CEM leukemia was over 25 µM throughout. In addition, the TGI in the experiment on IGROV1 ovarian, with NCI/ADR-RES ovarian, in the experiment on OVCAR-4 ovarian, with OVCAR-3 ovarian, in the experiment with A549 NSCLC and with PC-3 prostate was over 25 µM in each case. In addition, the TGI with HT29 colon, in the experiment on UACC-257 melanoma, in the experiment with M14 melanoma and in the experiment with CCRF-CEM leukemia was over 25 µM throughout.

In the case of `CC(C)c1c(C(=O)Nc2ccccc2)c(-c2ccccc2)c(-c2ccc(F)cc2)n1CC[C@@H](O)C[C@@H](O)CC(=O)O`, the GI50 in the experiment with IGROV1 ovarian is 22.2 µM; with NCI/ADR-RES ovarian, 40.8 µM; with OVCAR-4 ovarian, 27.8 µM; in the experiment with OVCAR-3 ovarian it was 33.1 µM; with A549 NSCLC, 56.5 µM; in the experiment on PC-3 prostate, 7.31 µM. Further, the GI50 in the experiment on HT29 colon was 50.3 µM; in the experiment with UACC-257 melanoma, 41.5 µM; in the experiment on M14 melanoma, 19.1 µM; with CCRF-CEM leukemia, 21.4 µM. Further, the TGI in the experiment on IGROV1 ovarian, with NCI/ADR-RES ovarian, with OVCAR-4 ovarian, in the experiment on OVCAR-3 ovarian, in the experiment on A549 NSCLC and with PC-3 prostate was over 100 µM each time. The TGI in the experiment on HT29 colon, with UACC-257 melanoma, in the experiment with M14 melanoma and with CCRF-CEM leukemia was over 100 µM throughout.

In the case of `N#CSc1c[nH]c2cccc(/C=C/C(=O)/C=C(O)/C=C/c3cccc4[nH]cc(SC#N)c34)c12`, the GI50 with IGROV1 ovarian was 0.46 µM; with NCI/ADR-RES ovarian, 2.72 µM; in the experiment on OVCAR-4 ovarian, 0.216 µM; in the experiment on OVCAR-3 ovarian it was 0.225 µM; in the experiment on A549 NSCLC, 0.353 µM; in the experiment on PC-3 prostate, 0.136 µM. Besides, the GI50 was 0.496 µM in the experiment on HT29 colon, 0.944 µM with UACC-257 melanoma, 0.437 µM with M14 melanoma and 0.159 µM in the experiment with CCRF-CEM leukemia. Moreover, the TGI in the experiment on IGROV1 ovarian was 1.58 µM; in the experiment on NCI/ADR-RES ovarian, over 33.3 µM; in the experiment with OVCAR-4 ovarian it was 1.72 µM; with OVCAR-3 ovarian, 1.09 µM; in the experiment on A549 NSCLC, 2.78 µM; in the experiment on PC-3 prostate, 1.77 µM. The TGI in the experiment on HT29 colon is 2.05 µM; in the experiment with UACC-257 melanoma, 3.38 µM; in the experiment with M14 melanoma it was 1.11 µM; with CCRF-CEM leukemia it was 6.47 µM.
